The values below come from patent US5126506A, “2',3'-Dideoxy-2'-fluoronucleosides” (Bristol-Myers Company, priority 1990, dated 1992).

The test system of data set [1] is HIV. Nature of the data set: Inhibition of cytopathic effect (CPE) in HTLV-1 transformed MT-2 cells infected with HIV virus. In kind it is cell-based. The following applies: MT2, 168 h, anti-HIV in vitro, inhibition of CPE measured seven days after infection, read-out: ID50 (50% inhib. conc.). The procedure: The assays were done in HTLV-1 transformed MT-2 cells infected with HIV virus. Inhibition of cytopathic effect CPE) was measured seven days after infection in comparison with control infected cells (Elaine Kinney-Thomas,(Bioch. Pharm., vol.36,pp 311-316, 1987).

The subject of data set [2] is HIV. The following applies: cited from earlier work; for anti-HIV activity: statement in words.
For data set [3] the following is noted: compared with ddA; cited from earlier work.

SMILES strings stand for the structures.

`Cc1cn([C@@H]2O[C@H](CO)[C@@H](N=[N+]=[N-])[C@@H]2F)c(=O)[nH]c1=O` [Compound 17, 2',3'-Dideoxy-2'-fluoroarabino-3'-azido-thymidine]: the IC50 in data set [1] was over 100 µM.

In the case of `Nc1ncnc2c1ncn2[C@@H]1O[C@H](CO)C[C@H]1F` [Compound B, 6-amino-(β'D-2',3'-dideoxy-2'-fluororibofuranosyl)-9-H-purine], in data set [2] (% of protection seen with ddA), the “protection against HIV relative to that seen with ddA” value is on record as 13%. The anti-HIV activity result in data set [2] is “active anti-HIV agents”. In addition, the “toxicity relative to ddA” value in data set [3] is reported as “more toxic than ddA”.

For the compound `Cc1cn([C@@H]2O[C@H](CO)C=C2F)c(=O)[nH]c1=O` [Compound 11, 2',3'-Dideoxy-2'3'-didehydro-2'-fluoro-thymidine], the IC50 in data set [1] was 10 to 100 µM.

With `Nc1ncnc2c1ncn2[C@@H]1O[C@H](CO)C[C@@H]1F` [Compound C, 6-amino-9-(β-D-2',3'-dideoxy-2'-fluoroarabinofuranosyl)-H-purine], the “activity and potency against HIV relative to AZT or ddA” value in data set [2] (compared with AZT or ddA) was “about as active and potent as AZT or ddA”. Moreover, the anti-HIV activity result in data set [2] is given as “active anti-HIV agents”.

For `Nc1ccn([C@@H]2O[C@H](CO)C[C@@H]2F)c(=O)n1` [Compound 5, 2',3'-Dideoxy-2'-fluoroarabino-cytidine], in data set [1], the IC50 was 4 µM.

Turning to `Nc1ccn([C@@H]2O[C@H](CO)C=C2F)c(=O)n1` [Compound 16, 2',3'-Dideoxy-2',3'-dehydro-2'-fluoro-cytidine], the IC50 in data set [1] lay within 15 to 48 µM.

On to `Cc1cn([C@@H]2O[C@H](CO)C[C@@H]2F)c(=O)[nH]c1=O` [Compound 7, 2', 3'-Dideoxy-2'-fluoroarabino-thymidine], for which the IC50 in data set [1] was over 100 µM.
